In patent US10328077B2 (CELGENE CORPORATION, priority 2016, dated 2019):
Like-named read-outs stand apart in the source and are kept apart here.

Legend:
[1] = test system: LU2527 lung NEC patient-derived xenograft; type: in vivo
[2] = test system: Salmonella typhimurium TA98 and TA100 strains; test: Bacterial reverse mutation assay; conditions: up to 500 μg/mL, presence and absence of S9
[3] = Pharmacokinetics after IV and oral dose, rats; type: in vivo, Sprague Dawley rats; conditions: for half-life: read-out: t1/2, z (converted)
[4] = test system: ST18 and FREM2 gene expression in MKL-1 or MS-1 tumors; test: qRT-PCR of candidate PD biomarker genes in hMCC xenografts (dose-response); type: in vivo, mice; conditions: 1, 2.5, or 5 mg/kg PO BID×4.5, both models
Description: Female NSG mice bearing palpable hMCC MKL-1 and MS-1 tumors were randomized into four groups of three mice each. Three groups were orally administered Compund A as monotherapy at 1, 2.5, or 5 mg/kg on a twice daily dosing schedule for nine doses (BID×4.5). The fourth group was orally administered vehicle as a control on the BID schedule. Four hours after the last dosing, tumors were collected into RNAlater and stored frozen.
Total RNA was eluted in RNase-free water and analyzed by qRT-PCR.

[5] = 4-week toxicity study with 4-week recovery in mice (incl. TK)
[6] = test system: LXFS 2156 SCLC patient-derived xenograft; test: LXFS 2156 SCLC PDX model; type: in vivo, mice; conditions: 5 mg base/kg oral QD×23
[7] = 4-week toxicity study (no recovery period) in dogs (incl. TK)
CYP3A4 = CYP3A4 (Homo sapiens (Human), UniProt P08684); test: CYP reaction phenotyping with recombinant human CYP enzymes; type: in vitro ADME
Text: The role of non-CYP enzymes in the metabolism of Compound A is yet to be ascertained.

[8] = test system: LXFS 573 SCLC patient-derived xenograft; test: LXFS 573 SCLC PDX model (monotherapy); type: in vivo, mice; conditions: for % TGI / TGI: Day 28
[9] = Hemodynamic and ECG parameters in anesthetized guinea pigs; type: in vivo, Dunkin Hartley guinea pigs; conditions: for concentration at 10 min: male, Dunkin Hartley, plasma, read-out: mean plasma concentration at end of infusion
Text: Animals were monitored throughout the experiment.

CYP2C9 = CYP2C9 (Homo sapiens (Human), UniProt P11712); test: CYP inhibition in pooled human liver microsomes, CYP2C9; type: in vitro ADME; conditions: up to 50 μM
MS-1 hMCC xenograft = type: in vivo; conditions: 5 mg/kg PO 5 on/2 off
in vivo [10] = conditions: Crl:CD1(ICR), mouse, plasma, po, 15 mg/kg
in vivo [11] = conditions: Beagle, dog, po; for AUC(0-t): AUC0-96
[12] = Metabolism in cryopreserved primary hepatocytes; type: in vitro ADME; conditions: male mouse, rat, dog, monkey; mixed gender human
[13] = Sprague Dawley, plasma, rat, female, single IV dose 5 mg
[14] = Sprague Dawley, plasma, rat, female, single oral dose 5 mg base/kg
[15] = Sprague Dawley, plasma, rat, female, single oral dose 15 mg base/kg
[16] = Sprague Dawley, plasma, rat, female, single oral dose 50 mg base/kg
[17] = Day 1, 5 mg base/kg/dose oral, 5 days on/2 days off, F
[18] = Day 1, 5 mg base/kg/dose oral, 5 days on/2 days off, M
[19] = Day 1, 15 mg base/kg/dose oral, 5 days on/2 days off, M
[20] = Day 1, 25 mg base/kg/dose oral, QODx3/week, F
[21] = Day 1, 25 mg base/kg/dose oral, QODx3/week, M
[22] = Day 1, 45 mg base/kg/dose oral, 5 days on/2 days off, F
[23] = Day 1, 45 mg base/kg/dose oral, 5 days on/2 days off, M
[24] = Day 26, 5 mg base/kg/dose oral, 5 days on/2 days off, F
[25] = Day 26, 5 mg base/kg/dose oral, 5 days on/2 days off, M
[26] = Day 26, 15 mg base/kg/dose oral, 5 days on/2 days off, F
[27] = Day 26, 25 mg base/kg/dose oral, QODx3/week, F
[28] = Day 26, 25 mg base/kg/dose oral, QODx3/week, M
[29] = Day 26, 45 mg base/kg/dose oral, 5 days on/2 days off, F
[30] = Day 26, 45 mg base/kg/dose oral, 5 days on/2 days off, M

CYP2C9, sequence (P11712 whole entry): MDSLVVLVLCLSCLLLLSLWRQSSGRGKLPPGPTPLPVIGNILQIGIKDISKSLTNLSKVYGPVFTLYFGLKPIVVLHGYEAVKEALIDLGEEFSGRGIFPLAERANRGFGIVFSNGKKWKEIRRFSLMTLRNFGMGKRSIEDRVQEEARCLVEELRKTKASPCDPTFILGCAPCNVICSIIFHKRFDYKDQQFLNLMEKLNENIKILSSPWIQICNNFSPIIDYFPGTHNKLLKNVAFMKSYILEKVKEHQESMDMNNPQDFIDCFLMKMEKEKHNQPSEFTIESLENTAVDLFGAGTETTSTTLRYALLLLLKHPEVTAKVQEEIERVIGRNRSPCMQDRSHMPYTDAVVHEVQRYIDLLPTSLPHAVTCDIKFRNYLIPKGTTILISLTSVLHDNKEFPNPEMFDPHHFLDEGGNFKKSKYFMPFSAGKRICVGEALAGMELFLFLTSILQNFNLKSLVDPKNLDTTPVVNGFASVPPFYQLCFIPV
CYP3A4, sequence (P08684 whole entry): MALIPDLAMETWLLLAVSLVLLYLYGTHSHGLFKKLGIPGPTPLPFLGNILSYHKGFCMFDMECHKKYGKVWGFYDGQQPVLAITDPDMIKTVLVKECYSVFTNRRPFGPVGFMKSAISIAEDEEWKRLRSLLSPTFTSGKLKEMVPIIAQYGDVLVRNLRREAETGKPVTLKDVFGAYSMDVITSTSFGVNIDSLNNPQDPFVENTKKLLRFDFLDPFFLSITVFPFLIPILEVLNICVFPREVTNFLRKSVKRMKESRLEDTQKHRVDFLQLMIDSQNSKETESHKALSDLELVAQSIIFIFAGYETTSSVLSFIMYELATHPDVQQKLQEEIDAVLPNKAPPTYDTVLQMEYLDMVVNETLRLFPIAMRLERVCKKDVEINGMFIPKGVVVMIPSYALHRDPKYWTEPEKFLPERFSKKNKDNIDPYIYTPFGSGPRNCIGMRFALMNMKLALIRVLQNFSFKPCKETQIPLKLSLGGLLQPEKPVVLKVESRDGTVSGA

With `COc1ccc(-c2c(-c3ccc(C#N)c(F)c3)nc(N3CCC(N)CC3)n(C)c2=O)cc1F` [Compound A, 4-[2-(4-amino-piperidin-1-yl)-5-(3-fluoro-4-methoxy-phenyl)-1-methyl-6-oxo-1,6-dihydro-pyrimidin-4-yl]-2-fluoro-benzonitrile] the “Median Tumor Volume Day 46” value ([1]; 5 mg/kg PO QD x 46) was 329.7 mm^3, the “Median Tumor Volume Diff (Day 46 - Day 0)” value ([1]; 5 mg/kg PO QD x 46) was 177.9 mm^3 and the “% TGI” value ([1]; 5 mg/kg PO QD x 46, Day 46) was 84%. The TGI ([1]; 5 mg/kg oral QD for 46 days) was 84%, the tolerability ([1]; 1.5 and 5 mg/kg oral QD) was “acceptably tolerated” and the mutagenicity [2] was “negative for mutagenicity”. For the same molecule, the systemic clearance ([3]; IV, rats (greater than liver blood flow)) was “high”, the AUC(0-inf) [3, 13] was 733 ng·h/mL and the AUC(0-t) [3, 13] was 680 ng·h/mL. For the same molecule, the clearance [3, 13] was 115 mL/min/kg, the Vd ([3]; Sprague Dawley, plasma, rat, female, single IV dose 5 mg, mean (SD), read-out: Vss) was 26.2 L/kg and the half-life [3, 13] was 3.6 h. It also gave an AUC(0-t) [3, 14] of 222 ng·h/mL, a Cmax [3, 14] of 47 ng/mL and a Tmax [3, 14] of 2 h. It also gave a bioavailability [3, 14] of 33%, a half-life [3, 14] of 3 h and an AUC(0-t) [3, 15] of 570 ng·h/mL. The Cmax [3, 15] was 123 ng/mL, the Tmax [3, 15] was 2 h and the bioavailability [3, 15] was 28%. The half-life [3, 15] was 2.9 h, the AUC(0-t) [3, 16] was 4650 ng·h/mL and the Cmax [3, 16] was 621 ng/mL. For the same molecule, the Tmax [3, 16] was 6 h, the bioavailability [3, 16] was 74% and the half-life [3, 16] was 3 h. The “ST18 and FREM2 change in gene expression in vivo” value [4] was at least 2 fold, the AUC0-24 [5, 17] was 1500 ng·h/mL and the Cmax [5, 17] was 201 ng/mL. It also gave an AUC0-24 [5, 18] of 2270 ng·h/mL, a Cmax [5, 18] of 230 ng/mL and an AUC0-24 [5, 19] of 13000 ng·h/mL. It also gave a Cmax [5, 19] of 1020 ng/mL, an AUC0-24 [5, 20] of 20300 ng·h/mL and a Cmax [5, 20] of 1830 ng/mL. It also gave an AUC0-24 [5, 21] of 21900 ng·h/mL, a Cmax [5, 21] of 1530 ng/mL and an AUC0-24 [5, 22] of 36300 ng·h/mL. For the same molecule, the Cmax [5, 22] was 3570 ng/mL, the AUC0-24 [5, 23] was 35200 ng·h/mL and the Cmax [5, 23] was 3130 ng/mL. For the same molecule, the AUC0-24 [5, 24] was 2410 ng·h/mL, the Cmax [5, 24] was 276 ng/mL and the AUC0-24 [5, 25] was 2010 ng·h/mL. For the same molecule, the Cmax [5, 25] was 276 ng/mL, the AUC0-24 [5, 26] was 8640 ng·h/mL and the Cmax [5, 26] was 769 ng/mL. It also gave an AUC0-24 [5, 27] of 17500 ng·h/mL, a Cmax [5, 27] of 1740 ng/mL and an AUC0-24 [5, 28] of 17800 ng·h/mL. It also gave a Cmax [5, 28] of 1450 ng/mL, an AUC0-24 [5, 29] of 26500 ng·h/mL and a Cmax [5, 29] of 2130 ng/mL. For the same molecule, the AUC0-24 [5, 30] was 29000 ng·h/mL, the Cmax [5, 30] was 2620 ng/mL and the NOAEL ([5]; QD×5/week schedule) was 5 mg base/kg/dose. The STD10 ([5]; QD×5/week schedule) was over 45 mg base/kg/dose, the STD10 ([5]; QOD×3 weekly schedule) was over 25 mg base/kg/dose and the TGI [6] was −7%. It also gave an HNSTD ([7]; Q2W administration) of 0.5 mg base/kg/dose, an NOAEL ([7]; Q2W administration) of under 0.5 mg base/kg/dose and an NOAEL ([7]; QW administration) of 0.125 mg base/kg/dose. For the same molecule, the HNSTD ([7]; QW dosing) was 0.25 mg base/kg/dose, the “role of CYP3A4 in metabolism” value (CYP3A4) was “predominantly responsible for the oxidative metabolism” and the “Median Tumor Volume Day 28” value ([8]; 5 mg base/kg PO QDx28) was 308.3 mm^3. The “Median Tumor Volume Diff. (Day 28 - Day 0)” value ([8]; 5 mg base/kg PO QDx28) was 199.9 mm^3, the “% TGI” value ([8]; 5 mg base/kg PO QDx28) was 78% and the TGI ([8]; 5 mg base/kg oral) was 78%. For the same molecule, the “Median Tumor Volume Day 28” value ([8]; 7.5 mg base/kg PO QDx28) was 496.6 mm^3, the “Median Tumor Volume Diff. (Day 28 - Day 0)” value ([8]; 7.5 mg base/kg PO QDx28) was 383.4 mm^3 and the “Median Tumor Volume Day 28” value ([8]; 10 mg base/kg PO QDx28) was 376.8 mm^3. For the same molecule, the “Median Tumor Volume Diff. (Day 28 - Day 0)” value ([8]; 10 mg base/kg PO QDx28) was 263.0 mm^3, the “% TGI” value ([8]; 10 mg base/kg PO QDx28) was 71% and the TGI ([8]; 10 mg/kg oral) was 71%. For the same molecule, the “mean body weight loss” value ([8]; mouse, in vivo) was at most 3%, the “maximum increase of QTcB interval vs vehicle” value ([9]; 10 mg base/kg IV) was “approximately 9%” and the “maximum increase of QTcB interval vs vehicle” value ([9]; 15 mg base/kg IV) was about 13%. For the same molecule, the “maximum increase of QTcB interval vs vehicle” value ([9]; 20 mg base/kg IV) was about 16%, the “maximum suppression of HR vs vehicle” value ([9]; 20 mg base/kg IV, 9 minutes into infusion) was 19% and the “NOAEL for hemodynamic and ECG endpoints” value ([9]; IV) was 10 mg base/kg. The “HR decrease at end of monitoring period” value ([9]; after 20 mg base/kg IV) was 18%, the “QTcB interval increase at end of monitoring period” value ([9]; guinea pig, in vivo) was 10% and the concentration at 10 min ([9]; guinea pig, 5 mg base/kg IV) was 1170 ng/mL. The concentration at 10 min ([9]; guinea pig, 10 mg base/kg IV) was 2360 ng/mL, the concentration at 10 min ([9]; guinea pig, 15 mg base/kg IV) was 4270 ng/mL and the concentration at 10 min ([9]; guinea pig, 20 mg base/kg IV) was 6710 ng/mL. The “direct inhibition of CYP2C9” value (CYP2C9) was “little to no direct inhibitory effect”, the “Median Tumor Volume Day 36” value (MS-1 hMCC xenograft) was 129 mm^3 and the “Median Tumor Volume Diff (Day 36 - Day -3)” value (MS-1 hMCC xenograft) was 80 mm^3. The AUC(0-t) (in vivo [10]; female) was 9680 ng·h/mL, the Cmax (in vivo [10]; female) was 850 ng/mL and the AUC(0-t) (in vivo [10]; male) was 7960 ng·h/mL. The Cmax (in vivo [10]; male) was 628 ng/mL, the AUC(0-t) (in vivo [11]; both, 0.125 mg/kg) was 127 ng·h/mL and the Cmax (in vivo [11]; both, 0.125 mg/kg, Cmax) was 5.26 ng/mL. For the same molecule, the Cmax (in vivo [11]; both, 0.125 mg/kg, combined Day 15 mean Cmax) was 5.26 ng/mL, the Cmax (in vivo [11]; both, 0.25 mg/kg, combined Day 15 mean Cmax) was 11 ng/mL and the Cmax (in vivo [11]; both, 0.5 mg/kg, combined Day 15 mean Cmax) was 22 ng/mL. The AUC(0-t) (in vivo [11]; both) was 120 ng·h/mL, the Cmax (in vivo [11]; both, Cmax) was 5.79 ng/mL and the AUC(0-t) (in vivo [11]; female, 0.25 mg/kg) was 343 ng·h/mL. It also gave a Cmax (in vivo [11]; female, 0.25 mg/kg, Cmax) of 12.1 ng/mL, an AUC(0-t) (in vivo [11]; female, 0.5 mg/kg) of 729 ng·h/mL and a Cmax (in vivo [11]; female, 0.5 mg/kg, Cmax) of 26.6 ng/mL. It also gave an AUC(0-t) (in vivo [11]; female) of 141 ng·h/mL, an AUC(0-t) (in vivo [11]; male, 0.25 mg/kg) of 335 ng·h/mL and a Cmax (in vivo [11]; male, 0.25 mg/kg, Cmax) of 11.9 ng/mL. It also gave an AUC(0-t) (in vivo [11]; male, 0.5 mg/kg) of 762 ng·h/mL, a Cmax (in vivo [11]; male, 0.5 mg/kg, Cmax) of 24 ng/mL and an AUC(0-t) (in vivo [11]; male) of 107 ng·h/mL. The “metabolic stability in hepatocytes” value [12] was “greater in rat and dog followed by human and monkeys while being least stable in mouse hepatocytes”.
